In paper PMC8841740, “Fluorescent Ligand-Based Discovery of Small-Molecule Sulfonamide Agonists for GPR120” (Frontiers in Chemistry, 2022):
Each block holds one compound with its values, some of them ahead of it.

What was measured:
GPR120 [1] = target: T1, GPR120 (Homo sapiens, UniProt Q5NUL3); assay: BRET activity test (β-arrestin-2 recruitment, GPR120-YFP / β-arrestin-2-Rluc in HEK293 cells); format: cell-based; set-up: host or cells: HEK293 (transfected with both plasmids); conditions: for Emax (FFA4 β-arrestin2): GSK137647A used as a standard
T1 sequence (Q5NUL3 1-361): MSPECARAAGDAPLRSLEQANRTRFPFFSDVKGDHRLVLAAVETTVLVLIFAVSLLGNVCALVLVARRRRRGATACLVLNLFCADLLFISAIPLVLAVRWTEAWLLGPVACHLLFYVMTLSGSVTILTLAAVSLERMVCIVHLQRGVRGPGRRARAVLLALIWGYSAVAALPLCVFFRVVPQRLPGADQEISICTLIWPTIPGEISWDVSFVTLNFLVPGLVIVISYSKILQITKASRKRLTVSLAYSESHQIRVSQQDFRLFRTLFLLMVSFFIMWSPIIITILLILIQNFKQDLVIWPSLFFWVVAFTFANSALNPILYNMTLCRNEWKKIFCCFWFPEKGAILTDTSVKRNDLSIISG
Method: GPR120-YFP and β-arresting-2-Rluc plasmids were transfected into HEK293 cells. After a 24-h incubation, the cells were seeded in a black 96-well plate (100 μl, 20,000 cells per well). Followed by a 24-h incubation, the solution was removed from the plate, and compounds with different concentrations (100 μl per well) and coelenterazine (10 μM, 100 μl per well) were added, followed by the fluorescence intensity was measured at 460 and 520 nm with the microplate reader ([Christiansen et al., 2016]; [Hill et al., 2018]).

GPR120 [2] = target: T1, GPR120; assay: GPR120 Ca2+ flow assay in HEK293 cells stably transfecting the GPR120-Rluc gene; format: cell-based; set-up: expressed in transfected cells; conditions: for Emax (FFA4 Ca2+): GSK137647A used as a standard
Method: Ca^2+ flow activity was determined in HEK293 cells stably transfecting the GPR120-Rluc gene. After incubating the cells for 24 h, the medium was removed from the plate, and the cells were washed with HBSS buffer (without Ca^2+ and Mg^2+). Subsequently, a 2-μM Fluo-4 AM working solution in HBSS buffer (without Ca^2+ and Mg^2+) was added to the plate (40 μl per well).

[3] = Optical property of fluorescent probes; format: physicochemical; conditions: for λabs: MeCN; for Φ (absolute quantum yield) / λem / λex: PBS; for SS (stokes shift): PBS buffer (pH = 7.4)
Method: The stocking solution of probes was diluted with acetonitrile to 40 μM, and their ultraviolet absorption spectrum was scanned with an ultraviolet spectrophotometer. Secondly, the excitation and emission spectra of probes at 10, 20, 30, and 40 μM with PBS buffer were measured with a microplate reader. Moreover, the excitation and emission spectrum were recorded in four solvents: MeCN, DMSO, H2O, and EA, respectively.

GPR120 [4] = target: T1, GPR120; assay: Preliminary screening of agonists by BRET competition with probe N1; format: binding; set-up: expressed in transfected cells; conditions: 10 μM compound, probe N1 400 nM
Method: HEK293 cells stably transfected with the GPR120-Rluc gene were seeded in a black 96-well plate (100 μl, 2 × 10^4 cells per well). After a 24-h incubation, the medium was removed, probe N1 (400 nM, 50 μl per well) was added, and 10 μM of the compound was added after a 30-min incubation as well. Followed by a 40-min incubation, coelenterazine (final concentration: 10 μM, 50 μl per well) was added to the plate. Afterward, the fluorescence intensity was measured at 450 and 550 nm with the microplate reader after another 10-min incubation.

GPR40 = target: T2, GPR40 (Homo sapiens, UniProt O14842); assay: GPR40 Ca2+ flow assay in CHO cells with transient GPR40 gene; format: cell-based; conditions: CHO cells, GPR40; read-out: FFA1 (Ca2+ pEC50) (converted)
T2 construct: expressed in transfected cells; host or cells: CHO (transient)
Method: Ca^2+ flow activity was determined in HEK293 cells stably transfecting the GPR120-Rluc gene. After incubating the cells for 24 h, the medium was removed from the plate, and the cells were washed with HBSS buffer (without Ca^2+ and Mg^2+). Subsequently, a 2-μM Fluo-4 AM working solution in HBSS buffer (without Ca^2+ and Mg^2+) was added to the plate (40 μl per well). After incubating the cells for 20 min at 37°C, compound solution at different concentrations in HBSS buffer (per well 160 μl) was added. Followed by a 40-min incubation, the solution was removed from the plate, HEPES buffer (200 μl per well) was added, and the fluorescence intensity was detected using the microplate reader (Ex: 488 nm; Em: 520 nm) ([Watterson et al., 2017]).
Ca^2+ flow activity was determined in CHO cells with transient GPR40 gene by the same method as well, in which the GPR40 agonist TAK875 was used as a positive control.

GPR120 [5] = conditions: cited from earlier work
[6] = GPR120, β-arrestin-2 activity test, read-out: pEC50 BRET (converted)
[7] = GPR120, Ca2+ flow, HEK293 GPR120-Rluc cells, read-out: pEC50 Ca2+ assay (converted)
[8] = Table 3, read-out: FFA4 (β-arrestin2 pEC50) (converted)
[9] = Table 3, read-out: FFA4 (Ca2+ pEC50) (converted)

SMILES: Cc1cc(C)c(NS(=O)(=O)c2ccc(-c3ccc4ccccc4c3)cc2)c(C)c1 [Compound B7, N-Mesityl-4-(Naphthalen-2-yl)benzenesulfonamide]
- inhibition rate in BRET screening compared with GSK137647A (GPR120 [4]): higher than GSK137647A
- EC50 (GPR40): > 50100 nM
- melting point: 211 to 212 °C
- Emax (FFA4 β-arrestin2) (GPR120 [1]): 0.894
- EC50 (GPR120 [1]; [8]): 19.5 nM
- Emax (FFA4 Ca2+) (GPR120 [2]): 0.285
- EC50 (GPR120 [2]; [9]): 138 nM

SMILES: Cc1cc(C)c(NS(=O)(=O)c2ccc(-c3ccc(N)c(F)c3)cc2)c(C)c1 [Compound B6, 4′-Amino-3′-Fluoro-N-Mesityl-[1,1′-Biphenyl]-4-Sulfonamide]
- inhibition rate in BRET screening compared with GSK137647A (GPR120 [4]): higher than GSK137647A
- EC50 (GPR40): > 50100 nM
- melting point: 176 to 177 °C
- Emax (FFA4 β-arrestin2) (GPR120 [1]): 0.881
- EC50 (GPR120 [1]; [8]): 132 nM
- Emax (FFA4 Ca2+) (GPR120 [2]): 1.25
- EC50 (GPR120 [2]; [9]): 204 nM

SMILES: Cc1ccc(-c2ccc(S(=O)(=O)Nc3c(C)cc(C)cc3C)cc2)cc1 [Compound B4, N-Mesityl-4′-Methyl-[1,1′-Biphenyl]-4-Sulfonamide]
- melting point: 195 to 196 °C

SMILES: Cc1cc(C)c(NS(=O)(=O)c2ccc(-c3ccccc3)cc2)c(C)c1 [Compound B1, N-Mesityl-[1,1′-biphenyl]-4-sulfonamide]
- melting point: 165 to 166 °C

SMILES: Cc1cc(C)c(NS(=O)(=O)c2ccc(-c3ccc(Br)cc3)cc2)c(C)c1 [Compound B3, 4′-Bromo-N-Mesityl-[1,1′-Biphenyl]-4-Sulfonamide]
- melting point: 176 to 177 °C

SMILES: Cc1ccc(S(=O)(=O)NC2c3ccccc3Oc3ccccc32)cc1 [AH-7614]
- pEC50 (Literature) (GPR120 [5]): <4.5^16

SMILES: Cc1cc(C)c(NS(=O)(=O)c2ccc(-c3ccc(OC(F)(F)F)cc3)cc2)c(C)c1 [Compound B5, N-Mesityl-4′-(Trifluoromethoxy)-[1,1′-Biphenyl]-4-Sulfonamide]
- inhibition rate in BRET screening compared with GSK137647A (GPR120 [4]): higher than GSK137647A
- EC50 (GPR40): > 50100 nM
- melting point: 169 to 170 °C
- Emax (FFA4 β-arrestin2) (GPR120 [1]): 0.790
- EC50 (GPR120 [1]; [8]): 43.7 nM
- Emax (FFA4 Ca2+) (GPR120 [2]): 1.27
- EC50 (GPR120 [2]; [9]): 81.3 nM

SMILES: Cc1cc(C)c(NS(=O)(=O)c2ccc(-c3ccc(F)cc3)cc2)c(C)c1 [Compound B2, 4′-Fluoro-N-Mesityl-[1,1′-Biphenyl]-4-Sulfonamide]
- melting point: 214 to 215 °C

SMILES: Cc1cc(C)c(NS(=O)(=O)c2ccc(-c3ccc(Cl)cc3)cc2)c(C)c1 [Compound B8, 4′-Chloro-N-Mesityl-[1,1′-Biphenyl]-4-Sulfonamide]
- melting point: 214 to 215 °C

Continued, values first:

- melting point: 161 to 162 °C
SMILES: Cc1cc(C)c(NS(=O)(=O)c2ccc(OCc3ccc(Br)cc3)cc2)c(C)c1 [Compound C3, 4-((4-Bromobenzyl)oxy)-N-mesitylbenzenesulfonamide]

- melting point: 184 to 185 °C
- EC50 (GPR120 [1]; [6]): 1780 nM
- EC50 (GPR120 [2]; [7]): 8910 nM
- λabs [3]: 417 nm
- Φ (absolute quantum yield) [3]: 1.03%
- λem [3]: 560 nm
- λex [3]: 438 nm
- SS (stokes shift) [3]: 122 nm
SMILES: Cc1cc(C)c(NS(=O)(=O)c2ccc(NCCCCN3C(=O)c4cccc5c(N(C)C)ccc(c45)C3=O)cc2)c(C)c1 [Compound N3, 4-((4-(6-(Dimethylamino)-1,3-dioxo-1H-benzo[de]isoquinolin-2(3H)-yl)butyl)amino)-N-mesitylbenzenesulfonamide]

- melting point: 144 to 145 °C
SMILES: O=S(=O)(Nc1ccc(Oc2ccccc2)cc1)c1ccc(-c2ccc(OC(F)(F)F)cc2)cc1 [Compound D4, N-(4-Phenoxyphenyl)-4′-(Trifluoromethoxy)-[1,1′-Biphenyl]-4-Sulfonamide]

- melting point: 103 to 104 °C
- EC50 (GPR120 [1]; [6]): 562 nM
- EC50 (GPR120 [2]; [7]): 6310 nM
- λabs [3]: 418 nm
- Φ (absolute quantum yield) [3]: 2.28%
- λem [3]: 562 nm
- λex [3]: 439 nm
- SS (stokes shift) [3]: 123 nm
SMILES: Cc1cc(C)c(NS(=O)(=O)c2ccc(NCCCN3C(=O)c4cccc5c(N(C)C)ccc(c45)C3=O)cc2)c(C)c1 [Compound N2, 4-((3-(6-(Dimethylamino)-1,3-dioxo-1H-benzo[de]isoquinolin-2(3H)-yl)propyl)amino)-N-mesitylbenzenesulfonamide]

- melting point: 139 to 140 °C
SMILES: O=S(=O)(Nc1ccc(OC(F)(F)F)cc1)c1ccc(-c2ccc(OC(F)(F)F)cc2)cc1 [Compound D2, 4′-(Trifluoromethoxy)-N-(4-(Trifluoromethoxy)phenyl)-[1,1′-Biphenyl]-4-Sulfonamide]

- melting point: 154 to 155 °C
SMILES: Cc1cc(C)c(NS(=O)(=O)c2ccc(OCc3c(F)cccc3C(F)(F)F)cc2)c(C)c1 [Compound C2, 4-((2-Fluoro-6-(trifluoromethyl)benzyl)oxy)-N-mesitylbenzenesulfonamide]

- melting point: 152 to 153 °C
SMILES: Cc1cc(C)cc(COc2ccc(S(=O)(=O)Nc3c(C)cc(C)cc3C)cc2)c1 [Compound C1, 4-((3,5-Dimethylbenzyl)oxy)-N-mesitylbenzenesulfonamide]

- melting point: 136 to 137 °C
SMILES: COc1cc(NS(=O)(=O)c2ccc(-c3ccc(OC(F)(F)F)cc3)cc2)cc(OC)c1OC [Compound D3, 4′-(Trifluoromethoxy)-N-(3,4,5-Trimethoxyphenyl)-[1,1′-Biphenyl]-4-Sulfonamide]

- melting point: 145 to 146 °C
SMILES: COc1ccc(NS(=O)(=O)c2ccc(-c3ccc(OC(F)(F)F)cc3)cc2)cc1OC [Compound D1, N-(3,4-Dimethoxyphenyl)-4′-(Trifluoromethoxy)-[1,1′-Biphenyl]-4-Sulfonamide]

- inhibition rate in BRET screening compared with GSK137647A (GPR120 [4]): higher than GSK137647A
- EC50 (GPR40): > 50100 nM
- melting point: 175 to 176 °C
- Emax (FFA4 β-arrestin2) (GPR120 [1]): 1.17
- EC50 (GPR120 [1]; [8]): 16.6 nM
- Emax (FFA4 Ca2+) (GPR120 [2]): 0.752
- EC50 (GPR120 [2]; [9]): 129 nM
SMILES: O=S(=O)(Nc1ccc(Cl)cc1Cl)c1ccc(-c2ccc3ccccc3c2)cc1 [Compound D7, N-(2,4-Dichlorophenyl)-4-(naphthalen-2-yl)benzenesulfonamide]
